Entries after “also recorded” stand apart in the source; their conditions may differ.
Legend:
[1] = target: T1, Avidin (Streptomyces avidinii, UniProt P22629); conditions: SBS: Avidin; cited from earlier work
[2] = target: T2, streptavidin (Streptomyces avidinii, UniProt P22629); assay: Scanning fluorescence imaging of Fluorescein-Streptavidin binding to caged-biotin glass slides after photodeprotection; conditions: NPOC, caproic-propyl spacer
T2 construct: purchased Amersham
Procedure: Commercially available glass microscope slides were derivatized with N-BOC-aminopropyltriethoxy silane according to literature procedures (for example, see J. Chromatography, 1974, Vol. 97, p. 33). The slides were incubated in a solution of 20% trifluoroacetic acid in methylene chloride for 30 minutes to remove the BOC protecting group. After washing sequentially with methylene chloride, dimethylformamide, and ethanol, the slides were neutralized by immersing in a solution of 10% diisopropylethyl amine in methylene chloride for 30 minutes and further washed with methylene chloride.
N-BOC-6-aminocaproic acid was converted to the BOP-activated ester in preparation for reaction with the derivatized glass slide. […]
[…], as described in the Example I, was mounted on a custom flow cell and illuminated through a 500 μm×500 μm checkerboard-pattern mask (Photo Sciences Inc., Torrance, Calif.) using broad-band UV/blue light. The light source was a 500 W Mercury arc lamp (Oriel Model 87330) equipped with a 350 nm-450 nm dichroic reflector and produced actinic light having an intensity of 12 mW/cm^2 as measured through a 360 nm bandpass filter. […]

[3] = Chromatographic (reverse-phase HPLC) evidence for photoremoval of the NVOC group in solution; format: physicochemical; conditions: 100 mM, two minutes, 1 watt/cm^2, 500 W Hg(Xe) arc lamp, 305 nm long pass filter; NVOC-biotin-ONP in acetonitrile, biotin in water
Source text: The cuvette was irradiated for two minutes at a power of 1 watt/cm^2 with a 500 W Hg(Xe) arc lamp (Oriel #66142) having a 305 nm long pass filter (Oriel #51450). Illuminated and non-illuminated samples were then subjected to reverse-phase HPLC.

[4] = system: avidin or streptavidin; conditions: cited from earlier work
[5] = target: T2, streptavidin; assay: Scanning fluorescence imaging of Fluorescein-Biotin binding to streptavidin immobilized on a slide; conditions: 1 μM Fluorescein-Biotin, 20 minutes
Procedure: The microscope slide of Example I having NVOC-biotin covalently attached via a caproic-propyl spacer was illuminated and processed as in Example J, except that after preincubation with the PBS/BSA/Tween 20 solution, the surface was treated with 10 μg/ml solution of Streptavidin (in PBS/BSA/Tween 20) for 40 minutes at room temperature, followed by incubation with a 1 μM solution of Fluorescein-Biotin (5-(N-((5-(N-(6-(biotinoyl)amino) hexanoyl)amino)pentyl)thioureidyl)fluorescein, in PBS, pH 7.4) for 20 minutes. The resulting slide was then washed, dried, and examined using a scanning fluorescence microscope as described above.

[6] = target: T1, Avidin; assay: Blocking of subsequent 3H-biotin binding in streptavidin-treated microtiter wells
Procedure: All procedures using NVOC-biotin-OMe were conducted in dim red light. NVOC-biotin-OMe was dissolved in dimethylformamide (DMF) to a concentration 1 mM and diluted to 100 μM with phosphate-buffered saline pH 7.4. In order to remove any contaminants having high affinity for avidin, 2 ml of the NVOC-biotin-OMe solution was mixed with 1 ml of packed streptavidin-Sepharose-4B resin (SIGMA) which had been washed thoroughly to remove any non-covalently bound avidin. After stirring for three hours, the resin was removed by centrifugation followed by filtration (0.2 micron nylon filter).
Microtiter wells (Beckman EIA plates) were treated for 1 hr with 200 μl of 0.5 μg/ml of streptavidin in 10 mM sodium bicarbonate buffer (pH 9.6). […] The wells were then washed with PBS/Tween 20 and incubated for 1 hr at room temperature with 200 μl of PBS containing ^3 H-biotin (30 Ci/mmol, New England Nuclear). The wells were then washed with PBS/Tween and treated for 30 minutes at room temperature with 200 μl of 10% trichloroacetic acid in water. The radioactivity in 100 μl was then determined by liquid scintillation counting.

T1 sequence (P22629 25-183): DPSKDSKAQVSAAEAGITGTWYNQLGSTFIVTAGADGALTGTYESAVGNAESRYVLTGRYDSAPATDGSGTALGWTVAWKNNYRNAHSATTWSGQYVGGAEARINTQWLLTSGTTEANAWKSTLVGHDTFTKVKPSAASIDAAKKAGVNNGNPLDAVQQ
T2 sequence (P22629 25-183): as above

SMILES: N=C1NC2CSC(CCCCC(=O)O)C2N1 (stereo not drawn) [Iminobiotin]
- Affinity (Ka) [1]: 10^11 M^-1

SMILES: O=C(CCCC[C@@H]1SC[C@H]2[C@@H]1NC(=O)N2C(=O)OCc1cc2c(cc1[N+](=O)[O-])OCO2)Oc1ccc([N+](=O)[O-])cc1 [NPOC-biotin-ONP, N-1'-(6-nitropiperonyloxycarbonyl)-biotin para-nitrophenyl ester]
- streptavidin binding upon photodeprotection (fluorescence image) [2]: spatially-localized streptavidin binding

SMILES: O=C(O)CCCC[C@@H]1SC[C@@H]2NC(=O)N[C@@H]21 [Biotin, reference compound]
- result of illumination (HPLC) [3]: unaffected by the illumination

SMILES: COc1cc(COC(=O)N2C(=O)N[C@@H]3[C@H](CCCCC(=O)Oc4ccc([N+](=O)[O-])cc4)SC[C@@H]32)c([N+](=O)[O-])cc1OC [NVOC-biotin-ONP, N-1'-(6-nitroveratryloxycarbonyl)-biotin para-nitrophenyl ester]
- result of illumination (HPLC) [3]: converted to biotin-ONP upon illumination; also recorded: converted to Biotin-ONP by the illumination

SMILES: CN(CCCNC(=O)CCCC[C@@H]1SC[C@@H]2NC(=O)N[C@@H]21)CCCNc1ccc(N=[N+]=[N-])cc1[N+](=O)[O-] [photobiotin]
- effect of carboxylate-terminus derivatization on binding to avidin or streptavidin [4]: does not significantly reduce binding to avidin or streptavidin

SMILES: O=C(CCCCCNC(=O)CCCC[C@@H]1SC[C@@H]2NC(=O)N[C@@H]21)NCCCCCNC(=S)Nc1ccc2c(c1)C(=O)OC21c2ccc(O)cc2Oc2cc(O)ccc21 [Fluorescein-Biotin, 5-(N-((5-(N-(6-(biotinoyl)amino)hexanoyl)amino)pentyl)thioureidyl)fluorescein]
- binding of Fluorescein-Biotin to immobilized streptavidin (fluorescence image) [5]: high fluorescence intensity

SMILES: COC(=O)CCCCC1SCC2C1NC(=O)N2C(=O)OC (stereo not drawn) [1'-N-methoxy-carbonylbiotin methyl ester]
- Affinity (Ka) [1]: 10^7 M^-1

SMILES: COC(=O)CCCCC1SCC2NC(=O)N(C(=O)OC)C21 (stereo not drawn) [3'-N-methoxy-carbonylbiotin methyl ester]
- Affinity (Ka) [1]: 10^9 M^-1

SMILES: COC(=O)CCCC[C@@H]1SC[C@H]2[C@@H]1NC(=O)N2C(=O)OCc1cc(OC)c(OC)cc1[N+](=O)[O-] [NVOC-biotin-OMe, N-1'-(6-nitroveratryloxycarbonyl)-biotin methyl ester]
- affinity for avidin ([6]; after illumination in solution): high affinity
- effectiveness in blocking the subsequent binding of 3H-biotin ([6]; illuminated (IL caged biotin), compared with biotin): nearly as effective as biotin
- effect on the subsequent binding of 3H-biotin ([6]; non-illuminated, concentrations as high as 10^-5 M): no significant effect
- affinity for avidin ([6]; prior to illumination): low affinity; also recorded: very low affinity

Reference: patent publication US5482867A, “Spatially-addressable immobilization of anti-ligands on surfaces” (Affymax Technologies N.V., priority 1993, dated 1996)
